Assays:
[1] = system: MRSA (a wild clinical strain from the JCU culture collection); assay: MIC determination, broth micro-dilution (CAMHB); type: cell-based, methicillin-resistant S. aureus; conditions: Table 1; 37° C., 24 h
Protocol: (§1) Four strains of bacteria were chosen for the susceptibility tests: S. aureus ATCC 25923; MRSA (a wild clinical strain from the JCU culture collection); E. coli ATCC 25922 and P. aeruginosa ATCC 27853. The bacteria were grown on Mueller Hinton agar (OXOID, cat. No. CM0337) and suspended in growth medium cation-adjusted Mueller Hinton broth (CAMHB, OXOID, cat. No. CM0405). The MIC of each complex was determined in duplicate by standard micro-dilution methodology (British Society for Antimicrobial Chemotherapy Working Party, J. Antimicrob. Chemother., 1991, 27(suppl. D), 22) using gentamicin as the positive control. The ruthenium complexes were dissolved in CAMHB to a stock solution of […] and two-fold diluted in the broth in 96-well plates in a final volume of […] in each well. The same volume […] of bacterial suspension was added in each well making a concentration range of 0.25 mg ml^−1 to 128 mg ml^−1 for each complex. The plates were incubated at 37° C. for 24 h. The results are summarised in Table 1 below, using the following abbreviations: • Rubpm=ΔΔ-[{Ru(phen)2}2(μ-2,2′-bipyrimidine)]Cl4 • Rudppm=ΔΔ-[{Ru(phen)2}2(μ-4,6-bis(2-pyridyl)pyrimidine)]Cl4 • Rubb7trinuclear=Δ*Δ*-[{Ru*(phen)2}(μ-bb7){Ru(phen)}(μ-bb7){Ru*(phen)2}]Cl6 (only the two terminal metal centres are chiral, the two central metal centres are racemic) • Rubb7tetranuclear=Δ*Δ*-[{Ru*(phen)2}(μ-bb7) {Ru(phen)}(μ-bb7){Ru(phen)}(μ-bb7)-{Ru*(phen)2}]Cl8 (only the two terminal metal centres are chiral, the two central metal centres are racemic)
(§2) Further MIC assays and Minimum Bactericidal Concentration (MBC) assays were conducted against Gram-positive and Gram-negative bacterial strains using symmetric and non-symmetric, inert and labile complexes.

P. aeruginosa ATCC 27853 = assay: MIC determination, broth micro-dilution (CAMHB); type: cell-based, Pseudomonas aeruginosa; conditions: Table 1; 37° C., 24 h
Protocol: as §1, §2

E. coli ATCC 25922 = assay: MIC determination, broth micro-dilution (CAMHB); type: cell-based, Escherichia coli; conditions: Table 1; 37° C., 24 h
Protocol: as §1, §2

S. aureus ATCC 25923 = assay: MIC determination, broth micro-dilution (CAMHB); type: cell-based, Staphylococcus aureus; conditions: Table 1; 37° C., 24 h
Protocol: as §1, §2

[2] = type: physicochemical; conditions: pH 7.4
Protocol: The primary difference between the members of the Rubbn family of complexes is the number of methylene groups in the flexible linking chain. […] Lipophilicity is a significant factor affecting the biological activity of most therapeutic compounds, as it relates to the capacity of the drug to penetrate through the cell membrane. The standard octanol-water partition coefficient (logP) was determined for the Rubbn series (F. Lombardo, B. Faller, M. Shalaeva, I. Tetko and S. Tilton, Methods and Principles in Medicinal Chemistry, 2008, 37, 407) parent model mononuclear species ([Ru(phen)2(Me2bpy)]^2+) and the trinuclear and tetranuclear complexes.
The partition coefficients (logP) were measured using the shake flask technique: each ruthenium complex (at both 0.05 and 0.1 mM) was dissolved in the water phase (0.2 M Na2HPO4—NaH2PO4 buffer, pH=7.4) and an equivalent volume of n-octanol was added.
The two phases were mutually saturated by shaking overnight at ambient temperature and then were allowed to separate on standing. The concentration of the metal complex in each phase was determined spectrophotometrically at l=450 nm.

| Compound | MIC MRSA [1] | MIC P. aeruginosa (P. aeruginosa ATCC 27853) | MIC E. coli (E. coli ATCC 25922) | MIC S. aureus (S. aureus ATCC 25923) | logP [2] |
| --- | --- | --- | --- | --- | --- |
| [Ru(Me2phen)3]^2+ [reference compound] | 128 µg/mL | >128 µg/mL | 128 µg/mL | 8 µg/mL | – |
| Δ*Δ*-[{Ru*(phen)2}(μ-bb7){Ru(phen)}(μ-bb7){Ru*(phen)2}]Cl6 [Rubb7trinuclear] | 4 µg/mL | 2 µg/mL | 16 µg/mL | 4 µg/mL | −1.2 |
| Cc1ccnc(-c2cc(CCCCCCCCCCc3ccnc(-c4cc(C)ccn4)c3)ccn2)c1.F[P-](F)(F)(F)(F)F.F[P-](F)(F)(F)(F)F.F[P-](F)(F)(F)(F)F.F[P-](F)(F)(F)(F)F.[Ru+2].[Ru+2].c1cnc2c(c1)ccc1cccnc12.c1cnc2c(c1)ccc1cccnc12.c1cnc2c(c1)ccc1cccnc12.c1cnc2c(c1)ccc1cccnc12 [ΛΛ-Rubb10, [{Ru(phen)2}2(μ-bb10)](PF6)4] | 8 µg/mL | 32 µg/mL | 4 µg/mL | 8 µg/mL | – |
| [{Ru(phen)2}2(μ-bb5)](PF6)4 [Rubb5] | – | – | – | – | −3.5 |
| Cc1cc[n+]2c(c1)-c1cc(CCCCCCCCCCCCCCc3cc[n+]4c(c3)-c3cc(C)cc[n+]3[Ru-4]435([n+]4cccc6ccc7ccc[n+]3c7c64)[n+]3cccc4ccc6ccc[n+]5c6c43)cc[n+]1[Ru-4]213([n+]2cccc4ccc5ccc[n+]1c5c42)[n+]1cccc2ccc4ccc[n+]3c4c21.[Cl-].[Cl-].[Cl-].[Cl-] [Rubb14, [{Ru(phen)2}2(μ-bb14)]Cl4] | – | – | – | – | −2.3 |
| Cc1ccnc(-c2cc(CCCCCCCCCCc3ccnc(-c4cc(C)ccn4)c3)ccn2)c1.F[P-](F)(F)(F)(F)F.F[P-](F)(F)(F)(F)F.F[P-](F)(F)(F)(F)F.F[P-](F)(F)(F)(F)F.[Ru+2].[Ru+2].c1cnc2c(c1)ccc1cccnc12.c1cnc2c(c1)ccc1cccnc12.c1cnc2c(c1)ccc1cccnc12.c1cnc2c(c1)ccc1cccnc12 [Rubb10, [{Ru(phen)2}2(μ-bb10)](PF6)4] | – | – | – | – | −3.3 |
| Cc1cnc2c(ccc3c(C)c(C)cnc32)c1C.Cc1cnc2c(ccc3c(C)c(C)cnc32)c1C.Cc1cnc2c(ccc3c(C)c(C)cnc32)c1C.[Ru+2] [[Ru(Me4phen)3]^2+, reference compound] | 4 µg/mL | 32 µg/mL | 8 µg/mL | 0.5 µg/mL | – |
| Cc1cc[n+]2c(c1)-c1cc(CCc3cc[n+]4c(c3)-c3cc(C)cc[n+]3[Ru-4]435([n+]4cccc6ccc7ccc[n+]3c7c64)[n+]3cccc4ccc6ccc[n+]5c6c43)cc[n+]1[Ru-4]213([n+]2cccc4ccc5ccc[n+]1c5c42)[n+]1cccc2ccc4ccc[n+]3c4c21 [Rubb2, [{Ru(phen)2}2(μ-bb2)]^4+] | – | – | – | – | −3.6 |
| ΔΔ-[{Ru(phen)2}2(μ-bbN12)]Cl4 [ΔΔ-RubbN12] | 128 µg/mL | >128 µg/mL | 128 µg/mL | 128 µg/mL | – |
| Cc1cc[n+]2c(c1)-c1cc(CCc3cc[n+]4c(c3)-c3cc(C)cc[n+]3[Ru-4]435([n+]4cccc6ccc7ccc[n+]3c7c64)[n+]3cccc4ccc6ccc[n+]5c6c43)cc[n+]1[Ru-4]213([n+]2cccc4ccc5ccc[n+]1c5c42)[n+]1cccc2ccc4ccc[n+]3c4c21 [ΛΛ-Rubb2, [{Ru(phen)2}2(μ-bb2)]^4+] | >128 µg/mL | >128 µg/mL | – | >128 µg/mL | – |
| Cc1cc[n+]2c(c1)-c1cc(CCCCCCCCCCCCCCc3cc[n+]4c(c3)-c3cc(C)cc[n+]3[Ru-4]435([n+]4cccc6ccc7ccc[n+]3c7c64)[n+]3cccc4ccc6ccc[n+]5c6c43)cc[n+]1[Ru-4]213([n+]2cccc4ccc5ccc[n+]1c5c42)[n+]1cccc2ccc4ccc[n+]3c4c21.[Cl-].[Cl-].[Cl-].[Cl-] [ΛΛ-Rubb14, [{Ru(phen)2}2(μ-bb14)]Cl4] | 1 µg/mL | 8 µg/mL | 2 µg/mL | 1 µg/mL | – |
| Cc1cc[n+]2c(c1)-c1cc(CCc3cc[n+]4c(c3)-c3cc(C)cc[n+]3[Ru-4]435([n+]4cccc6ccc7ccc[n+]3c7c64)[n+]3cccc4ccc6ccc[n+]5c6c43)cc[n+]1[Ru-4]213([n+]2cccc4ccc5ccc[n+]1c5c42)[n+]1cccc2ccc4ccc[n+]3c4c21 [ΔΔ-Rubb2, [{Ru(phen)2}2(μ-bb2)]^4+] | – | – | >128 µg/mL | – | – |
| Cc1ccnc(-c2cc(CCCCCCCCCCCCCCCCc3ccnc(-c4cc(C)ccn4)c3)ccn2)c1.[Cl-].[Cl-].[Cl-].[Cl-].[Ru+2].[Ru+2].c1cnc2c(c1)ccc1cccnc12.c1cnc2c(c1)ccc1cccnc12.c1cnc2c(c1)ccc1cccnc12.c1cnc2c(c1)ccc1cccnc12 [ΛΛ-Rubb16, [{Ru(phen)2}2(μ-bb16)]Cl4] | 1 µg/mL | 8 µg/mL | 4 µg/mL | 1 µg/mL | – |
| Cc1cc[n+]2c(c1)-c1cc(CCCCCCCc3cc[n+]4c(c3)-c3cc(C)cc[n+]3[Ru-4]435([n+]4cccc6ccc7ccc[n+]3c7c64)[n+]3cccc4ccc6ccc[n+]5c6c43)cc[n+]1[Ru-4]213([n+]2cccc4ccc5ccc[n+]1c5c42)[n+]1cccc2ccc4ccc[n+]3c4c21.F[P-](F)(F)(F)(F)F.F[P-](F)(F)(F)(F)F.F[P-](F)(F)(F)(F)F.F[P-](F)(F)(F)(F)F [ΛΛ-Rubb7, [{Ru(phen)2}2(μ-bb7)](PF6)4] | 32 µg/mL | 64 µg/mL | 16 µg/mL | 64 µg/mL | – |
| ΔΔ-[{Ru(phen)2}2(μ-bb14)](PF6)4 [ΔΔ-Rubb14] | 1 µg/mL | 8 µg/mL | 4 µg/mL | 1 µg/mL | – |
| ΔΔ-[{Ru(phen)2}2(μ-bbN7)] [ΔΔ-RubbN7] | >128 µg/mL | >128 µg/mL | >128 µg/mL | >128 µg/mL | – |
| [Ru+2].c1cnc2c(c1)ccc1cccnc12.c1cnc2c(c1)ccc1cccnc12.c1cnc2c(c1)ccc1cccnc12 [[Ru(phen)3]^2+, reference compound] | >128 µg/mL | >128 µg/mL | >128 µg/mL | >128 µg/mL | – |
| [{Ru(phen)2}2(μ-bb12)] [ΛΛ-Rubb12] | 2 µg/mL | 16 µg/mL | 2 µg/mL | 2 µg/mL | – |
| [{Ru(phen)2}2(μ-bb5)](PF6)4 [ΛΛ-Rubb5] | 128 µg/mL | 128 µg/mL | 64 µg/mL | 128 µg/mL | – |
| [{Ru(phen)2}2(μ-bb5)](PF6)4 [ΔΔ-Rubb5] | 128 µg/mL | >128 µg/mL | 128 µg/mL | 128 µg/mL | – |
| ΔΔ-[{Ru(phen)2}2(μ-bbO7)](PF6)4 [ΔΔ-RubbO7] | 128 µg/mL | >128 µg/mL | 128 µg/mL | 128 µg/mL | – |

Reference: patent US20130172308A1, “ANTIMICROBIAL AGENTS” (John Grant COLLINS, priority 2011, published 2013)
